These results are taken from US4880817A, “O-functionalized derivatives of substituted isoquinolin-3-ols having cardiotonic and/or phosphodiesterase fraction III inhibiting properties and/or renal vasodilating properties” (Ortho Pharmaceutical Corporation, priority 1987, dated 1989).

Read-outs that look alike come from different tables or passages of the source.

For assay [1], the system named is adult mongrel dogs. Put plainly: Acute in vivo cardiotonic activity in anesthetized dogs. On the set-up: species or system mongrel dog. Conditions: Canis lupus familiaris, iv, relative to controls; for change in vivo at 1.87 mg/kg: dose 1.87 mpk; for change in vivo at 0.875 mg/kg: dose 0.875 mpk; for change in vivo at 0.375 mg/kg: dose 0.375 mpk. The protocol:
The acute in vivo cardiotonic activity of compounds prepared according to the present invention was determined according to a modification of the procedure described by Alousi et al., Circ.
In particular, adult mongrel dogs were anesthetized with sodium pentobarbital and were artificially respired. Arterial pressure was monitored via a femoral artery, and the pulse pressure was used to trigger a cardiotachometer for heart rate. Left ventricular pressure was determined with a Millar catheter, and dP/dT (the change in ventricular pressure with time) was derived. Cardiac output was determined by measuring ascending aortic blood flow with an electromagnetic flow probe, and myocardial contractile force was measured with a Walton Brodie strain gauge sutured to the right ventricle. Lead II EKG was also recorded.
A standard dose (10 μg/kg/min) of dopamine was administered to assess myocardial responsiveness.
Compounds of the invention were administered by intravenous infusion and the effects on cardiovascular parameters were determined.

For assay [2], the system named is adult mongrel dogs. Kind of assay: Renal vasodilating activity in anesthetized dogs. The class given is in vivo, mongrel dog. As to conditions: Canis lupus familiaris; for change in vivo at 1.34 mg/kg: dose 1.34 mpk. The protocol: Goldberg et al., J. Pharmacol. Exp. Ther., 163, 188 (1968), performed an investigation of the structural requirements for dopamine-like renal vasodilation of phenethylamines and apomorphine. The following procedure is a variation of the assay described in that report.
Adult mongrel dogs were anesthetized and surgically prepared for electromagnetic measurement of renal artery blood flow. A carotid artery was cannulated for measuring arterial blood pressure and drugs were administered intravenously or intraarterially (via the renal artery). Heart rate was monitored with a cardiotachometer. Renal vascular resistance was calculated as the ratio of mean arterial blood pressure to renal artery blood flow. Dopamine was infused intravenously at 3 μg/kg/min for ten minutes (at an infusion rate of about 1 ml/min) to determine responsiveness of each dog to renal dopamine receptor stimulation. Cumulative dose-response data were obtained by infusing a compound of this invention at progressively increasing (usually three-fold) infusion rates, each dose being infused for five minutes. The maximum percent change from pre-drug control in renal artery blood flow (or in renal vascular resistance) was determined for each infusion dose.
RBF, RVR, MABP, and HR values are percent changes in renal blood flow, renal vascular resistance, mean arterial blood pressure, and heart rate, respectively, relative to control values.

[3] abbreviates: read-out: CF: percent change in cardiac force.
The mark [4] stands for this setting: read-out: HR: percent change in heart rate.
Where [5] appears, read: read-out: MABP: percent change in mean arterial blood pressure.
[6] abbreviates: read-out: dP/dT: maximum percent change in left ventricular pressure with time.
Where [7] appears, read: read-out: HR: percent change in heart rate, dose 6.2 mpk, relative to controls.
[8] abbreviates: read-out: MABP: percent change in mean arterial blood pressure, dose 6.2 mpk, relative to controls.
[9] abbreviates: read-out: RBF: percent change in renal blood flow, dose 6.2 mpk, relative to controls.
Setting [10] is: read-out: RVR: percent change in renal vascular resistance, dose 6.2 mpk, relative to controls.
Where [11] appears, read: dose 6.2 mpk, relative to controls, read-out: HR: percent change in heart rate.
Where [12] appears, read: dose 6.2 mpk, relative to controls, read-out: MABP: percent change in mean arterial blood pressure.
The mark [13] stands for this setting: dose 6.2 mpk, relative to controls, read-out: RBF: percent change in renal blood flow.
The mark [14] stands for this setting: dose 6.2 mpk, relative to controls, read-out: RVR: percent change in renal vascular resistance.

With `CCOc1cc2c([N+](=O)[O-])c(OC(=O)C(C)(C)C)nc(C)c2cc1OC` [Cmpd 23], the change in vivo at 1.87 mg/kg turned out to be 27% with adult mongrel dogs [1] (setting [3]), 5% in the assay with adult mongrel dogs [1] (setting [4]), 3% in the assay with adult mongrel dogs [1] (setting [5]) and 24% in the assay on adult mongrel dogs [1] (setting [6]).
Take `CCOc1cc2c(C)nc(OC(=O)N(CC)CC)c([N+](=O)[O-])c2cc1OC` [Cmpd 28]: the change in vivo at 0.875 mg/kg in the assay with adult mongrel dogs [1] (setting [3]) was 71%; in the assay with adult mongrel dogs [1] (setting [4]), 27%; in the assay with adult mongrel dogs [1] (setting [5]), -4%; with adult mongrel dogs [1] (setting [6]), 70%. Further, the change in vivo at 6.2 mg/kg with adult mongrel dogs [2] (setting [7]) is 5%; in the assay with adult mongrel dogs [2] (setting [8]), -18%; in the assay on adult mongrel dogs [2] (setting [9]), 50%; in the assay on adult mongrel dogs [2] (setting [10]), -45%.
Take `COc1cc2c(C)nc(OS(=O)(=O)N(C)C)c([N+](=O)[O-])c2cc1OC` [Cmpd 25]: the change in vivo at 1.87 mg/kg in the assay on adult mongrel dogs [1] (setting [3]) worked out at 49%; with adult mongrel dogs [1] (setting [4]) it was 5%; in the assay on adult mongrel dogs [1] (setting [5]), 12%; in the assay on adult mongrel dogs [1] (setting [6]), 61%. In addition, the change in vivo at 6.2 mg/kg with adult mongrel dogs [2] (setting [11]) was 32%; in the assay with adult mongrel dogs [2] (setting [12]) it was -12%; in the assay on adult mongrel dogs [2] (setting [13]) it was 61%; in the assay on adult mongrel dogs [2] (setting [14]), -46%.
On to `COc1cc2c(C)nc(OC(=O)N(C)C)c(N)c2cc1OC` [Cmpd 39], for which the change in vivo at 1.87 mg/kg in the assay with adult mongrel dogs [1] (setting [3]) is 76%; in the assay on adult mongrel dogs [1] (setting [4]) it was 16%; in the assay with adult mongrel dogs [1] (setting [5]), -1%; with adult mongrel dogs [1] (setting [6]), 73%.
Regarding `COc1cc2c(C)nc(OC(=O)N(C)C)c([N+](=O)[O-])c2cc1OC` [Cmpd 13], the change in vivo at 1.87 mg/kg in the assay on adult mongrel dogs [1] (setting [3]) was 49%; in the assay with adult mongrel dogs [1] (setting [4]), 6%; in the assay with adult mongrel dogs [1] (setting [5]) it was -8%; in the assay with adult mongrel dogs [1] (setting [6]) it was 24%. Moreover, the change in vivo at 6.2 mg/kg was 12% in the assay on adult mongrel dogs [2] (setting [7]), -5% in the assay with adult mongrel dogs [2] (setting [8]), 8% with adult mongrel dogs [2] (setting [9]) and -12% in the assay on adult mongrel dogs [2] (setting [10]).
Take `CCOc1cc2c(C)nc(OC(=O)c3ccccc3)c([N+](=O)[O-])c2cc1OC` [Cmpd 8]: the change in vivo at 0.375 mg/kg is 124% with adult mongrel dogs [1] (setting [3]), 10% with adult mongrel dogs [1] (setting [4]), -20% in the assay with adult mongrel dogs [1] (setting [5]) and 54% in the assay on adult mongrel dogs [1] (setting [6]).
For the compound `CCCC(=O)Oc1nc(C)c2cc(OC)c(OC)cc2c1[N+](=O)[O-]` [Cmpd 41], the change in vivo at 1.87 mg/kg with adult mongrel dogs [1] (setting [3]) is 166%; in the assay with adult mongrel dogs [1] (setting [4]), 29%; in the assay on adult mongrel dogs [1] (setting [5]), -34%; in the assay with adult mongrel dogs [1] (setting [6]), 62%.
Turning to `COc1cc2c(C)nc(OC(=O)c3ccccc3)c([N+](=O)[O-])c2cc1OC` [Cmpd 7], the change in vivo at 0.875 mg/kg is 59% in the assay on adult mongrel dogs [1] (setting [3]), 4% in the assay with adult mongrel dogs [1] (setting [4]), -10% in the assay on adult mongrel dogs [1] (setting [5]) and 34% with adult mongrel dogs [1] (setting [6]).
Consider `CCN(CC)c1c(OC(C)=O)nc(C)c2cc(OC)c(OC)cc12` [Cmpd 29, 3-Acetoxy-4-(N,N-diethylamino)-6,7-dimethoxy-1-methylisoquinoline 1/2 Hydrate], for which the change in vivo at 1.87 mg/kg in the assay with adult mongrel dogs [1] (setting [3]) amounted to 79%; with adult mongrel dogs [1] (setting [4]), 13%; in the assay on adult mongrel dogs [1] (setting [5]) it was 6%; in the assay with adult mongrel dogs [1] (setting [6]), 58%.
As for `CCOc1cc2c(C)nc(OC(=O)CC)c([N+](=O)[O-])c2cc1OC` [Cmpd 4], the change in vivo at 0.375 mg/kg with adult mongrel dogs [1] (setting [3]) is 100%; with adult mongrel dogs [1] (setting [4]), 7%; with adult mongrel dogs [1] (setting [5]), -25%; with adult mongrel dogs [1] (setting [6]), 46%.
Take `COc1cc2c(C)nc(OC(=O)N3CCN(C(=O)OC(C)(C)C)CC3)c([N+](=O)[O-])c2cc1OC` [Cmpd 68]: the change in vivo at 0.3 mg/kg is 11% in the assay on adult mongrel dogs [2] (read-out: HR: percent change in heart rate, dose 0.3 mpk, relative to controls); -1% in the assay on adult mongrel dogs [2] (read-out: MABP: percent change in mean arterial blood pressure, dose 0.3 mpk, relative to controls); 17% in the assay on adult mongrel dogs [2] (read-out: RBF: percent change in renal blood flow, dose 0.3 mpk, relative to controls); -13% in the assay with adult mongrel dogs [2] (read-out: RVR: percent change in renal vascular resistance, dose 0.3 mpk, relative to controls).
Regarding `COc1cc2c(C)nc(OC(C)=O)c([N+](=O)[O-])c2cc1OC` [Cmpd 2, 3-Acetoxy-6,7-dimethoxy-1-methyl-4-nitroisoquinoline], the change in vivo at 6.2 mg/kg in the assay with adult mongrel dogs [2] (setting [11]) is -2%; in the assay on adult mongrel dogs [2] (setting [12]) it was -8%; in the assay with adult mongrel dogs [2] (setting [13]), 17%; with adult mongrel dogs [2] (setting [14]) it was -16%.
Regarding `COc1cc2c(C)nc(OC(=O)N(c3ccccc3)c3ccccc3)c(N)c2cc1OC` [Cmpd 36], the change in vivo at 1.87 mg/kg was 26% in the assay with adult mongrel dogs [1] (setting [3]), 9% with adult mongrel dogs [1] (setting [4]), -1% in the assay on adult mongrel dogs [1] (setting [5]) and 26% in the assay with adult mongrel dogs [1] (setting [6]).
For the compound `COc1cc2c(C)nc(OC(C)=O)c(Br)c2cc1OC` [Cmpd 1], the change in vivo at 1.34 mg/kg was 37% with adult mongrel dogs [2] (relative to controls, read-out: HR: percent change in heart rate); -21% in the assay with adult mongrel dogs [2] (relative to controls, read-out: MABP: percent change in mean arterial blood pressure); 22% in the assay with adult mongrel dogs [2] (relative to controls, read-out: RBF: percent change in renal blood flow); 35% with adult mongrel dogs [2] (relative to controls, read-out: RVR: percent change in renal vascular resistance).
With `C=CCNC(=O)Nc1c(OC(=O)N(C(C)C)C(C)C)nc(C)c2cc(OC)c(OC)cc12` [Cmpd 62], the change in vivo at 1.2 mg/kg in the assay on adult mongrel dogs [2] (read-out: HR: percent change in heart rate, dose 1.2 mpk, relative to controls) is 0%; with adult mongrel dogs [2] (read-out: MABP: percent change in mean arterial blood pressure, dose 1.2 mpk, relative to controls), 11%; with adult mongrel dogs [2] (read-out: RBF: percent change in renal blood flow, dose 1.2 mpk, relative to controls), 17%; in the assay with adult mongrel dogs [2] (read-out: RVR: percent change in renal vascular resistance, dose 1.2 mpk, relative to controls), -5%.
Regarding `COc1ccc(NC(=O)Nc2c(OC(C)=O)nc(C)c3cc(OC)c(OC)cc23)cc1` [Cmpd 32], the change in vivo at 1.2 mg/kg with adult mongrel dogs [2] (dose 1.2 mpk, relative to controls, read-out: HR: percent change in heart rate) is -23%; in the assay on adult mongrel dogs [2] (dose 1.2 mpk, relative to controls, read-out: MABP: percent change in mean arterial blood pressure), 1%; with adult mongrel dogs [2] (dose 1.2 mpk, relative to controls, read-out: RBF: percent change in renal blood flow), 6%; in the assay with adult mongrel dogs [2] (dose 1.2 mpk, relative to controls, read-out: RVR: percent change in renal vascular resistance), -4%.
In the case of `COc1cc2c(C)nc(OS(C)(=O)=O)c([N+](=O)[O-])c2cc1OC` [Cmpd 16], the change in vivo at 6.2 mg/kg in the assay with adult mongrel dogs [2] (setting [11]) was 19%; in the assay on adult mongrel dogs [2] (setting [12]) it was -6%; in the assay on adult mongrel dogs [2] (setting [13]), 12%; in the assay with adult mongrel dogs [2] (setting [14]), -16%.
Consider `CCCCNC(=O)Nc1c(OC(=O)N(CC)CC)nc(C)c2cc(OC)c(OC)cc12` [Cmpd 38, 4-[N'-(n-Butylureido)]-3-diethylcarbamyloxy-6,7-dimethoxy-1-methylisoquinoline], for which the change in vivo at 6.2 mg/kg is -4% in the assay with adult mongrel dogs [2] (setting [7]), 5% with adult mongrel dogs [2] (setting [8]), 34% with adult mongrel dogs [2] (setting [9]) and -21% with adult mongrel dogs [2] (setting [10]).
In the case of `CCOc1cc2c(C)nc(OC(=O)N3CCN(C(=O)OC(C)(C)C)CC3)c([N+](=O)[O-])c2cc1OC` [Cmpd 69], the change in vivo at 6.2 mg/kg in the assay on adult mongrel dogs [2] (setting [7]) is 21%; in the assay on adult mongrel dogs [2] (setting [8]), 6%; with adult mongrel dogs [2] (setting [9]), 24%; in the assay on adult mongrel dogs [2] (setting [10]) it was -14%.
